Assay results published in patent publication US4153709A, “N-Heterocyclic ureas as immune regulants” (Eli Lilly and Company, priority 1977, dated 1979).

What follows are molecules tested on antibody response to sheep blood cells (hemaglutination titer) (assay: Immune regulating test: suppression of hemaglutination titer by 4-fold factor in mice (i.p. drug, i.p. sheep blood cells), Tables 1-15). Conditions: Mus musculus, ip, 192 h, × 3, intraperitoneal, minimum dose to suppress the hemaglutination titer by a 4-fold factor, 8 days after antigen, read-out: Immuno-Suppressant ED4-Fold.
Type: in vivo, Swiss mice
Protocol: The ability of compounds according to the above formulas to alter immune mechanisms in a host animal was measured by their activity according to the following test. Groups of five 20-gram Swiss mice were injected intraperitoneally with standardized suspensions of an antigen--in this instance sheep blook cells. […] Eight days after injection of the antigen, the mice were bled and the sera from each group pooled. Antibody determinations were made on the serum pools by a hemaglutination pattern procedure and comparisons made between treated and control animals. In Tables 1-18 which follow, the activity of the compounds listed therein is given in terms of the minimum dose of drug necessary to suppress the hemaglutination titer by a 4-fold factor in the treated mice as compared with control titers.

SMILES	minimal effective dose [mg/kg]
COc1ccccc1NC(=O)Nc1nc2cc(Cl)ccc2[nH]1 [Table 2: o-anisyl]	< 6.2
O=C(Nc1ccc(F)cc1)Nc1nc2ccccc2[nH]1 [Table 1: p-fluorophenyl, H]	6.2
COc1ccc2nc(NC(=O)Nc3cccc4ccccc34)sc2c1 [Table 11: α-naphthyl, 6-CH3 O, S]	< 50
CN(C(=O)Nc1cccc2ccccc12)c1nc2ccccc2[nH]1 [Table 7: α-naphthyl, H]	25
Cc1cc2nc(NC(=O)Nc3ccc(F)cc3)sc2cc1C	12.5
O=C(Nc1nc2ccccc2s1)Nc1ccccc1F [Table 11: o-fluorophenyl, H, S]	< 6.2
Cc1ccc(NC(=O)Nc2nc3c(ccc4ccccc43)s2)cc1 [Table 14: p-tolyl]	6.2
Cc1cc2nc(NC(=O)Nc3ccccc3Cl)sc2cc1C	< 100
O=C(Nc1ccc(F)cc1)Nc1nc2c(ccc3ccccc32)[nH]1 [Table 10: p-fluorophenyl]	25
O=C(Nc1ccc(Br)cc1)Nc1nc2c(ccc3ccccc32)s1 [Table 14: p-bromophenyl]	< 50
Cc1cc2nc(NC(=O)Nc3ccc(F)cc3F)[nH]c2cc1C [Table 5: 2,4-difluorophenyl, CH3, CH3]	0.4
O=C(Nc1ccccc1)Nc1nc2c(Cl)cccc2s1 [Table 11: phenyl, 4-Cl, S]	< 12.5
Cc1cc2nc(NC(=O)Nc3ccccc3C)[nH]c2cc1C [Table 5: o-tolyl, CH3, CH3]	12.5
O=C(Nc1nc2ccccc2[nH]1)Nc1cccc2ccccc12 [Table 1: α-naphthyl, H, N-(2-Benzimidazolyl)-N'-naphthylurea]	3.1
CCOc1ccccc1NC(=O)Nc1nc2ccccc2s1 [Table 11: o-ethoxyphenyl, H, S]	< 50
Cc1cc2nc(NC(=O)Nc3ccc(Cl)cc3)sc2cc1C	25
O=C(Nc1nc2ccccc2[nH]1)Nc1ccccc1Cl [Table 1: o-chlorophenyl, H]	12.5
Cn1c(NC(=O)Nc2ccccc2)nc2ccccc21 [Table 8: phenyl, methyl]	3.1
Cc1ccccc1NC(=O)Nc1nc2ccccc2[nH]1 [Table 1: o-tolyl, H]	25
CCOC(=O)c1ccc2[nH]c(NC(=O)Nc3cccc(Cl)c3)nc2c1 [Table 3: m-chlorophenyl]	50
Cc1ccc(NC(=O)Nc2nc3ccccc3s2)cc1 [Table 11: p-tolyl, H, S]	100
O=C(Nc1ccccc1)Nc1nc2cc(C(F)(F)F)ccc2[nH]1 [Table 4: phenyl, CF3]	12.5
O=C(Nc1ccc(F)cc1)Nc1nc2ccccc2s1 [Table 11: p-fluorophenyl, H, S]	< 25
O=C(Nc1cccc(Cl)c1)Nc1nc2ccccc2[nH]1 [Table 1: m-chlorophenyl, H]	3.1
O=C(Nc1ccc(F)cc1)Nc1nc2cc3ccccc3cc2[nH]1 [Table 9: p-fluorophenyl]	> 25
O=C(Nc1nc2ccccc2[nH]1)Nc1ccccc1F [Table 1: o-fluorophenyl, H]	1.6

SMILES	minimal effective dose [mg/kg]
O=C(Nc1nc2cc(Cl)c(Cl)cc2[nH]1)Nc1cccc2ccccc12 [Table 5: α-naphthyl, Cl, Cl]	> 12.5
O=C(Nc1nc2ccccc2s1)Nc1cc(Cl)ccc1Cl [Table 11: 2,5-dichlorophenyl, H, S]	12.5
O=C(Nc1ccccc1)Nc1nc2ccccc2o1 [Table 11: phenyl, H, O]	50
O=C(Nc1ccc(Cl)cc1)Nc1nc2cc(Cl)ccc2[nH]1 [Table 2: p-chlorophenyl]	6.2
O=C(Nc1nc2c(s1)CCCC2)Nc1cccc2ccccc12 [Table 13: α-naphthyl]	< 50
O=C(Nc1ccccc1)Nc1nc2ccc3ccccc3c2s1 [Table 15: phenyl]	0.8
O=C(Nc1ccccc1)Nc1nc2cc(Cl)c(Cl)cc2[nH]1 [Table 5: phenyl, Cl, Cl]	12.5
Cc1cc2nc(NC(=O)Nc3cccc(C(F)(F)F)c3)sc2cc1C	25
CCOC(=O)c1ccc2[nH]c(NC(=O)Nc3cccc4ccccc34)nc2c1 [Table 3: α-naphthyl]	6.2
Cc1cc2nc(NC(=O)Nc3ccccc3F)[nH]c2cc1C [Table 5: o-fluorophenyl, CH3, CH3]	100
O=C(Nc1ccccc1)Nc1nc2cc(Cl)ccc2[nH]1 [Table 2: phenyl]	25
Cc1ccccc1NC(=O)Nc1nc2ccccc2s1 [Table 11: o-tolyl, H, S]	< 50
CN(C(=O)Nc1ccccc1)c1nc2ccccc2[nH]1 [Table 7: phenyl, H]	50
CCOC(=O)c1ccc2[nH]c(NC(=O)Nc3ccccc3Cl)nc2c1 [Table 3: o-chlorophenyl]	0.4
O=C(Nc1ccc(Br)cc1)Nc1nc2ccccc2[nH]1 [Table 1: p-bromophenyl, H]	100
O=C(Nc1nc2ccccc2o1)Nc1cccc2ccccc12 [Table 11: α-naphthyl, H, O]	50
O=C(Nc1ccccc1)Nc1nc2ccccc2n1-c1ccccc1 [Table 8: phenyl, phenyl]	50
O=C(Nc1cccc(C(F)(F)F)c1)Nc1nc2ccccc2s1 [Table 11: m-trifluoromethylphenyl, H, S]	< 50
O=C(Nc1nc2ccc3ccccc3c2s1)Nc1cccc2ccccc12 [Table 15: α-naphthyl]	0.4
O=C(Nc1ccccc1)Nc1nc2c(ccc3ccccc32)[nH]1 [Table 10: phenyl]	50
O=C(Nc1cccc(Cl)c1)Nc1nc2c(Cl)cccc2s1 [Table 11: m-chlorophenyl, 4-Cl, S]	< 50
CN(C(=O)Nc1ccc(Cl)cc1)c1nc2ccccc2[nH]1 [Table 7: p-chlorophenyl, H]	50
Cc1ccc(NC(=O)Nc2nc3ccccc3[nH]2)cc1 [Table 1: p-tolyl, H]	6.2
Cc1cc2nc(NC(=O)Nc3ccccc3)sc2cc1C [Table 11: phenyl, 5,6-dimethyl, S]	100
COc1ccc(NC(=O)Nc2nc3cc(C)c(C)cc3[nH]2)cc1 [Table 5: p-anisyl, CH3, CH3]	12.5
O=C(Nc1ccc(Cl)c(Cl)c1)Nc1nc2c(ccc3ccccc32)s1 [Table 14: 3,4-dichlorophenyl]	3.1

SMILES	minimal effective dose [mg/kg]
Cn1c(NC(=O)Nc2ccc(Cl)cc2)nc2ccccc21 [Table 8: p-chlorophenyl, methyl]	> 50
O=C(Nc1nc2c(ccc3ccccc32)[nH]1)Nc1cccc2ccccc12 [Table 10: α-naphthyl]	> 6.2
CCOC(=O)c1ccc2[nH]c(NC(=O)Nc3ccccc3C)nc2c1 [Table 3: o-tolyl]	25
CN(C(=O)Nc1ccccc1)c1nc2ccccc2s1 [Table 12: phenyl]	50
O=C(Nc1ccccc1)Nc1nc2cc(Cl)ccc2o1 [Table 11: phenyl, 5-Cl, O]	200
O=C(Nc1cccc(C(F)(F)F)c1)Nc1nc2c(ccc3ccccc32)s1 [Table 14: m-trifluoromethylphenyl]	< 6.2
Cc1cc2nc(NC(=O)Nc3cccc4ccccc34)[nH]c2cc1C [Table 5: α-naphthyl, CH3, CH3]	50
Cc1cc2nc(NC(=O)Nc3cccc(Cl)c3)sc2cc1C	100
O=C(Nc1cccc(C(F)(F)F)c1)Nc1nc2ccccc2[nH]1 [Table 1: m-trifluoromethylphenyl, H]	100
O=C(Nc1ccccc1)Nc1nc2c(ccc3ccccc32)s1 [Table 14: phenyl]	< 12.5
COc1ccc2nc(NC(=O)Nc3cccc(C)c3)sc2c1 [Table 11: m-tolyl, 6-CH3 O, S]	< 25
COc1ccc2nc(NC(=O)Nc3ccc(Br)cc3)sc2c1 [Table 11: p-bromophenyl, 6-CH3 O, S]	100
CCOC(=O)c1ccc2[nH]c(NC(=O)Nc3ccc(F)cc3)nc2c1 [Table 3: p-fluorophenyl]	25
O=C(Nc1nc2c(ccc3ccccc32)s1)Nc1cc(Cl)ccc1Cl [Table 14: 2,5-dichlorophenyl]	100
Cc1ccc(NC(=O)Nc2nc3cc(Cl)ccc3[nH]2)cc1 [Table 2: p-tolyl]	50
Cc1cc2nc(NC(=O)Nc3ccccc3)[nH]c2cc1C [Table 5: phenyl, CH3, CH3]	12.5
Cc1cc2nc(NC(=O)Nc3cccc4ccccc34)sc2cc1C [Table 11: α-naphthyl, 5,6-dimethyl, S]	50
O=C(Nc1nc2cc(Cl)ccc2[nH]1)Nc1ccccc1F [Table 2: o-fluorophenyl]	< 100
O=C(Nc1ccc(F)cc1)Nc1nc2cc(Cl)ccc2[nH]1 [Table 2: p-fluorophenyl]	< 12.5
CCOC(=O)c1ccc2[nH]c(NC(=O)Nc3cccc(C)c3)nc2c1 [Table 3: m-tolyl]	< 12.5
O=C(Nc1ccc(F)cc1)Nc1nc2c(ccc3ccccc32)s1 [Table 14: p-fluorophenyl]	12.5
O=C(Nc1cccc(Cl)c1)Nc1nc2ccccc2s1 [Table 11: m-chlorophenyl, H, S]	1.6
O=C(Nc1cccc(Cl)c1)Nc1nc2c(ccc3ccccc32)s1 [Table 14: m-chlorophenyl]	< 1.6
Cc1cc2nc(NC(=O)Nc3cc(Cl)ccc3Cl)[nH]c2cc1C [Table 5: 2,5-dichlorophenyl, CH3, CH3]	< 25
